In patent US9193744B2, “Heterocyclic nuclear hormone receptor modulators” (AbbVie Inc., priority 2012, dated 2015):
Like-named read-outs stand apart in the source and are kept apart here. Blank lines part the entries; values can stand above or below the molecule they belong to.

Tests used:
[1] = target: T1, Glucocorticoid Receptor (GR) (Homo sapiens, UniProt P04150); assay: GR Fluorescence Polarization Assay (PolarScreen Glucocorticoid Receptor Competitor Assay, Red); conditions: fluorescence polarization binding ranges
T1 construct: purchased Invitrogen P2893
T1 sequence (P04150 1-777): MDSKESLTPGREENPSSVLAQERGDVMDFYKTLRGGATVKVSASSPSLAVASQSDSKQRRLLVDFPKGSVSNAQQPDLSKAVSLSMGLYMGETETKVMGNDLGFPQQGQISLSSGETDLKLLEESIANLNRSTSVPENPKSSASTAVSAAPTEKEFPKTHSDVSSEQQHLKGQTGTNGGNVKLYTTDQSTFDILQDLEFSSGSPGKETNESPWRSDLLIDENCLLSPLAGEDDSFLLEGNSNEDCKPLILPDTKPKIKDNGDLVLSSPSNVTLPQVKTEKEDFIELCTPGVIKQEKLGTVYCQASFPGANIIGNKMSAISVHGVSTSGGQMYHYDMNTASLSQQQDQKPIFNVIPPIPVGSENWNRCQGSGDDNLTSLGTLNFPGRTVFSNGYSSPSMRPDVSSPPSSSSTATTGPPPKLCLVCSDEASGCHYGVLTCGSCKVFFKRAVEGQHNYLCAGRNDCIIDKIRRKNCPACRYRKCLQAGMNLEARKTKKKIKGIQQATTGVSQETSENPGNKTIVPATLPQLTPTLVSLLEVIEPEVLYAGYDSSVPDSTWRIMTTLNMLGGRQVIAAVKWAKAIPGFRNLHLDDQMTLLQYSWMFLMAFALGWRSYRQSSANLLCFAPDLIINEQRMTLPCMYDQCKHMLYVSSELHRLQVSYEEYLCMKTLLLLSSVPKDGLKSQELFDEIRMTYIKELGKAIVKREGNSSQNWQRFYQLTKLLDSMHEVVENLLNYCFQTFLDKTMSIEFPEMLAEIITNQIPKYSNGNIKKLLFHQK
Method: Fluorescence polarization assays were carried out using the PolarScreen™ Glucocorticoid Receptor Competitor Assay, Red from Invitrogen (P2893). The assay buffer was prepared according to the manufacturer's protocol and used to dilute the fluorescent glucocorticoid and GR. Compounds were prepared and serial diluted 1:4 in DMSO. Compound, fluorescent glucocorticoid and GR were added in a final volume of 20 μL and incubated overnight at 4° C. Fluorescent polarization was measured on the PerkinElmer Envision®. Fluorescence polarization binding ranges measured using GR Fluorescence Polarization Assay: […]

IL-6 = assay: A549 Cell Assay to Measure Inflammation Markers (inhibition of IL-1β-induced IL-6); type: cell-based; conditions: A549 cells, read-out: A549 cell assay
Method: A549 Cell Assay to Measure Inflammation Markers
A549 cells were seeded (3E4 cells/well) in 96-well assay plates in culture medium (100 μL/well., F-12 K base media, supplemented with 10% FBS and 100 μ/mL-100 μg/mL Pen-Strep.) After overnight culture in an incubator set to 37° C., 4.9% CO2, and 90% humidity, media was removed from adherent cells by aspiration and replaced with 100 μL/well Assay Medium (F-12 K base media supplemented with 5% charcoal stripped calf sera and 100 U/mL-100 μg/mL Pen-Strep.) Compounds were prepared in DMSO and serial diluted (1:3, 1:4, or 1:5) with DMSO in Dilution Plate(s) to give 10 dilution points for each compound tested. Further dilution (1:250) of compound was made into assay medium and 50 μL/well diluted drug or DMSO/media control was applied to cells. After a 1 h pre-incubation in a temperature, CO2, and humidity controlled incubator, set to 37° C., 50 μL/well of 4 ng/mL IL-1β diluted in assay media, was applied to cultures. Assay plates, with a final volume of 200 μL/well and final concentrations of 0.1% DMSO and 1 ng/mL IL-1β were returned to incubator for a four h incubation period. Next, plates were spun at 183 g (1000 rpm in Beckman/Coulter Allegra 6KR centrifuge) for 10 min. Cell-free supernatant (150 μL/well) was collected and IL-6 was measured by MSD kit, following protocol of manufacturer, and using MSD SECTOR Imager 6000 instrument. Potency of compounds to inhibit IL-6 was determined using the percent reduction of measured IL-6 in wells with compound compared to control wells without drug, and relative to (100% inhibition) positive control compound of 1 μM prednisolone. Results were represented as IC50 and Emax values. To verify that viable cell numbers were similar across plate(s), and not confounding compound IC50 data interpretation, the remaining 50 μL/well of cells and media (after removal of supernatant) were used to run Cell Titer-Glo Assay per directions of manufacturer.

Compound: CC[C@@]12CC[C@](O)(COC)C[C@@H]1CCCc1cc3c(cnn3-c3ccnc(C)c3)cc12 (racemic) [Example 45]
IC50 [1]: < 100 nM
IC50 (IL-6): < 100 nM

Compound: OC[C@@]12CC[C@](O)(C(F)(F)F)C[C@H]1CCCc1cc3c(cnn3-c3ccc(F)cc3)cc12 (racemic) [Example 80]
IC50 [1]: < 100 nM
IC50 (IL-6; Homo sapiens): < 100 nM

Compound: CC[C@@]12CC(=O)[C@](C)(O)C[C@@H]1CCCc1cc3c(cnn3-c3ccc(F)cc3)cc12 (racemic) [Example 100, rac-(3R,4aS,12bR)-12b-Ethyl-9-(4-fluorophenyl)-3-hydroxy-3-methyl-1,3,4,4a,5,6,7,12b-octahydrobenzo[6,7]cyclohepta[1,2-f]indazol-2(9H)-one]
IC50 [1]: < 100 nM
IC50 (IL-6; Homo sapiens): < 100 nM

Compound: CC[C@@]12CC[C@](O)(COC)C[C@@H]1CCOc1cc3c(cnn3-c3ccc(F)cc3)cc12 (racemic) [Example 129]
IC50 [1]: < 100 nM
IC50 (IL-6): < 100 nM

Compound: CC[C@@]12CC[C@](O)(COC)C[C@@H]1CCOc1cc3c(cnn3-c3ccncc3)cc12 (racemic) [Example 132]
IC50 [1]: < 100 nM
IC50 (IL-6; Homo sapiens): < 100 nM

Compound: CC[C@@]12CC[C@](O)(COC)C[C@@H]1CCOc1cc3c(cnn3-c3nnc(C)s3)cc12 (racemic) [Example 139]
IC50 [1]: 100 to 1000 nM

Compound: C[C@@]1(O)CC[C@@]2(Cc3ccccn3)c3cc4cnn(-c5ccc(F)cc5)c4nc3CCC[C@H]2C1 (racemic) [Example 148, rac-(3R,4aS,12bS)-9-(4-Fluorophenyl)-3-methyl-12b-(pyridin-2-ylmethyl)-1,2,3,4,4a,5,6,7,9,12b-decahydrobenzo[3,4]cyclohepta[1,2-b]pyrazolo[4,3-e]pyridin-3-ol]
IC50 [1]: < 100 nM
IC50 (IL-6; Homo sapiens): < 100 nM

Compound: CC[C@]12CC[C@](O)(C(F)(F)F)C[C@H]1CCCc1cc3c(cnn3-c3ccc(F)cc3)cc12 (single isomer, unassigned) [Example 2]
IC50 [1]: < 100 nM
IC50 (IL-6; Homo sapiens): < 100 nM

Compound: CCC[C@@]1(O)CC[C@]2(CC)c3cc4cnn(-c5ccc(F)cc5)c4cc3CCC[C@H]2C1 (single isomer, unassigned) [Example 6]
IC50 [1]: 100 to 1000 nM
IC50 (IL-6; Homo sapiens): 100 to 1000 nM

Compound: CC[C@]12CC[C@](O)(COC)C[C@@H]1CCCc1cc3c(cnn3-c3ccc(F)cc3)cc12 (single isomer, unassigned) [Example 8]
IC50 [1]: 100 to 1000 nM
IC50 (IL-6; Homo sapiens): > 10000 nM

Compound: O=C(NC1CC1)[C@@]12CC[C@](O)(C(F)(F)F)C[C@H]1CCCc1cc3c(cnn3-c3ccc(F)cc3)cc12 (single isomer, unassigned) [Example 86]
IC50 [1]: 100 to 1000 nM

Compound: CC[C@]12CC[C@@](O)(COC)C[C@H]1CCOc1cc3c(cnn3-c3ccnc(C)c3)cc12 (single isomer, unassigned) [Example 127]
IC50 [1]: 100 to 1000 nM

Compound: C[C@]1(O)CC[C@]2(Cc3ccccn3)c3cc4cnn(-c5ccc(F)cc5)c4nc3CCC[C@@H]2C1 (single isomer, unassigned) [Example 150]
IC50 [1]: 100 to 1000 nM

Compound: Cc1cc(-n2ncc3cc4c(cc32)CCC[C@@H]2C[C@@](C)(O)CC[C@]42Cc2ccccn2)ccn1 [Example 61]
IC50 [1]: 100 to 1000 nM

Compound: Cc1cc(-n2ncc3cc4c(cc32)CCC[C@H]2C[C@@](O)(CC#N)CC[C@@]42Cc2ccccn2)ccn1 [Example 70]
IC50 (IL-6): < 100 nM

Compound: CC[C@]12CC[C@@](OP(=O)(O)O)(C(F)(F)F)C[C@@H]1CCCc1cc3c(cnn3-c3ccc(F)cc3)cc12 [Example 101, (3S,4aS,12bS)-12b-Ethyl-9-(4-fluorophenyl)-3-(trifluoromethyl)-1,2,3,4,4a,5,6,7,9,12b-decahydrobenzo[6,7]cyclohepta[1,2-f]indazol-3-yl dihydrogen phosphate]
IC50 [1]: 100 to 1000 nM

Compound: CC[C@]12CC[C@@](O)(COC)C[C@H]1CCOc1cc3c(cnn3-c3ccnc(OC)c3)cc12 [Example 137]
IC50 [1]: 1000 to 10000 nM

Compound: CC[C@]12CC[C@@](O)(COC)C[C@H]1CCOc1cc3c(cnn3-c3ccnc(C(F)(F)F)c3)cc12 [Example 140]
IC50 [1]: 100 to 1000 nM

Compound: CC[C@]12CC[C@](C)(O)C[C@H]1CCOc1cc3c(cnn3-c3ccnc(C)c3)cc12 [Example 142]
IC50 [1]: 100 to 1000 nM

Compound: CC[C@]12CC[C@@](O)(CC#N)C[C@H]1CCOc1cc3c(cnn3-c3ccnc(C)c3)cc12 [Example 144]
IC50 [1]: 100 to 1000 nM

Further lines, results first:

IC50 [1]: 1000 to 10000 nM
IC50 (IL-6; Homo sapiens): 100 to 1000 nM
Compound: CC[C@]12CC[C@](O)(C(F)(F)F)C[C@@H]1CCCc1nc3c(cnn3-c3ccc(F)cc3)cc12 (racemic) [Example 151, rac-(3R,4aS,12bS)-12b-Ethyl-9-(4-fluorophenyl)-3-(trifluoromethyl)-1,2,3,4,4a,5,6,7,9,12b-decahydrobenzo[3,4]cyclohepta[1,2-b]pyrazolo[4,3-e]pyridin-3-ol]

IC50 [1]: < 100 nM
IC50 (IL-6; Homo sapiens): < 100 nM
Compound: CC[C@@]12CC[C@](O)(C(F)(F)F)C[C@H]1CCCc1nc3c(cnn3-c3ccc(F)cc3)cc12 (racemic) [Example 152, rac-(3R,4aR,12bR)-12b-ethyl-9-(4-fluorophenyl)-3-(trifluoromethyl)-1,2,3,4,4a,5,6,7,9,12b-decahydrobenzo[3,4]cyclohepta[1,2-b]pyrazolo[4,3-e]pyridin-3-ol]

IC50 [1]: 100 to 1000 nM
IC50 (IL-6; Homo sapiens): > 10000 nM
Compound: O[C@@]1(C(F)(F)F)CC[C@@]2(Cc3ccccn3)c3cc4cnn(-c5ccc(F)cc5)c4nc3CCC[C@H]2C1 (racemic) [Example 155, rac-(3R,4aR,12bR)-9-(4-Fluorophenyl)-12b-(pyridin-2-ylmethyl)-3-(trifluoromethyl)-1,2,3,4,4a,5,6,7,9,12b-decahydrobenzo[3,4]cyclohepta[1,2-b]pyrazolo[4,3-e]pyridin-3-ol]

IC50 [1]: < 100 nM
IC50 (IL-6; Homo sapiens): < 100 nM
Compound: O[C@]1(C(F)(F)F)CC[C@@]2(Cc3ccccn3)c3cn4cnc(-c5ccc(F)cc5)c4cc3CCC[C@@H]2C1 (racemic) [Example 166, rac-(3R,4aR,13bS)-9-(4-fluorophenyl)-13b-(pyridin-2-ylmethyl)-3-(trifluoromethyl)-2,3,4,4a,5,6,7,13b-octahydro-1H-benzo[3,4]cyclohepta[1,2-d]imidazo[1,5-a]pyridin-3-ol]

IC50 [1]: < 100 nM
IC50 (IL-6; Homo sapiens): < 100 nM
Compound: COC[C@@]1(O)CC[C@@]2(Cc3ccccn3)c3cn4cnc(-c5ccc(F)cc5)c4cc3CCC[C@H]2C1 (racemic) [Example 167, rac-(3R,4aS,13bS)-9-(4-Fluorophenyl)-3-(methoxymethyl)-13b-(pyridin-2-ylmethyl)-2,3,4,4a,5,6,7,13b-octahydro-1H-benzo[3,4]cyclohepta[1,2-d]imidazo[1,5-a]pyridin-3-ol]

IC50 [1]: 100 to 1000 nM
Compound: COC[C@]1(O)CC[C@]2(Cc3ccccn3)c3cc4cnn(-c5ccc(F)cc5)c4nc3CCC[C@H]2C1 [Example 157]

IC50 [1]: 100 to 1000 nM
Compound: COC[C@]1(O)CC[C@]2(Cc3ncccn3)c3cc4cnn(-c5ccc(F)cc5)c4nc3CCC[C@@H]2C1 [Example 159]

IC50 [1]: 100 to 1000 nM
Compound: C[C@@]1(O)CC[C@@]2(Cc3ncccn3)c3cc4cnn(-c5ccc(F)cc5)c4nc3CCC[C@H]2C1 [Example 161]

IC50 [1]: 100 to 1000 nM
Compound: N#CC[C@]1(O)CC[C@]2(Cc3ccccn3)c3cc4cnn(-c5ccc(F)cc5)c4nc3CCC[C@@H]2C1 [Example 164]

IC50 [1]: 100 to 1000 nM
Compound: CC[C@]12CC[C@@](OS(N)(=O)=O)(C(F)(F)F)C[C@@H]1CCCc1cc3c(cnn3-c3ccc(F)cc3)cc12 [Example 170, (3S,4aS,12bS)-12b-ethyl-9-(4-fluorophenyl)-3-(trifluoromethyl)-1,2,3,4,4a,5,6,7,9,12b-decahydrobenzo[6,7]cyclohepta[1,2-f]indazol-3-yl sulfamate]
